Patent US20210198277A1, “AMINE-SUBSTITUTED ARYL OR HETEROARYL COMPOUNDS” (Epizyme, Inc., priority 2016, published 2021)
Where two headings read alike, the source gives them in different places.

What was measured:
EHMT1 = target: T1, EHMT1 (Homo sapiens, UniProt Q9H9B1); test: EHMT1 enzyme assay on peptide substrate (EHMT1 PEP); format: biochemical
T1 sequence (Q9H9B1 1-1298): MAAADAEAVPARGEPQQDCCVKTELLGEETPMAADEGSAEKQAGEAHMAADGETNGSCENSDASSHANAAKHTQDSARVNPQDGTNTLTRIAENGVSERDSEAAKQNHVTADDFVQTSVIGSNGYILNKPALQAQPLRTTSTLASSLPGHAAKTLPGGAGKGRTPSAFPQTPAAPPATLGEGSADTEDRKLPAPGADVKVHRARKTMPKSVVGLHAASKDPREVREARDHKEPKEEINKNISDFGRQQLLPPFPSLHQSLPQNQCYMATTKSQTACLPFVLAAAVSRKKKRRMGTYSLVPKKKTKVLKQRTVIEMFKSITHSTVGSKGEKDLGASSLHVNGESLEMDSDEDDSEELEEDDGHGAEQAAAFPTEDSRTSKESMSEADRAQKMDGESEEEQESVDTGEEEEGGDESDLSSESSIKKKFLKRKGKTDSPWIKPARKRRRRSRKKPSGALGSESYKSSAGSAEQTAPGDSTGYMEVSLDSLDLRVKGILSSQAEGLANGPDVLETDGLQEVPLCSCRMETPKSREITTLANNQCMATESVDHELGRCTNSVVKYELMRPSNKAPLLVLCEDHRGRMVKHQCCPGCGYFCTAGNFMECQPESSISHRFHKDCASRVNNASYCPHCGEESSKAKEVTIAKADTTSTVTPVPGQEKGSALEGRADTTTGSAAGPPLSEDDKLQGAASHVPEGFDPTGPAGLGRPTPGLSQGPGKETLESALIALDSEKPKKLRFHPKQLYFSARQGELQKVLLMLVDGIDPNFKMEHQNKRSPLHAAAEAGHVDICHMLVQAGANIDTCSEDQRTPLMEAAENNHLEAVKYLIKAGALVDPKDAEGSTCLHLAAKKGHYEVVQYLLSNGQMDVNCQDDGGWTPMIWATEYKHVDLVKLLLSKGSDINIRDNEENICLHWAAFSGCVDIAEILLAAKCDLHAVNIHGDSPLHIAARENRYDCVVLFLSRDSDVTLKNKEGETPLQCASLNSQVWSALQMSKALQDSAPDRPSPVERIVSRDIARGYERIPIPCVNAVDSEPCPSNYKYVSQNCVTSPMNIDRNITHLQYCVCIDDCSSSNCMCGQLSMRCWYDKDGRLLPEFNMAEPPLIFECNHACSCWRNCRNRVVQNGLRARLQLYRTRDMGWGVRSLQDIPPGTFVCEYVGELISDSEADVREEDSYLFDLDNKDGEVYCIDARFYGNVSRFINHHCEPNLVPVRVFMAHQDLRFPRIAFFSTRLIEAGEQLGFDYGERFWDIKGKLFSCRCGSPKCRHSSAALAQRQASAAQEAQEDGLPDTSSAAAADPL

human EHMT2 913-1193 = target: T2, human EHMT2 913-1193 (Homo sapiens, UniProt Q96KQ7); test: EHMT2 enzyme assay on histone peptide substrate (EHMT2 PEP); format: biochemical
T2 construct: recombinant purified human EHMT2 913-1193, Viva; purchased Viva
T2 sequence (Q96KQ7 913-1193): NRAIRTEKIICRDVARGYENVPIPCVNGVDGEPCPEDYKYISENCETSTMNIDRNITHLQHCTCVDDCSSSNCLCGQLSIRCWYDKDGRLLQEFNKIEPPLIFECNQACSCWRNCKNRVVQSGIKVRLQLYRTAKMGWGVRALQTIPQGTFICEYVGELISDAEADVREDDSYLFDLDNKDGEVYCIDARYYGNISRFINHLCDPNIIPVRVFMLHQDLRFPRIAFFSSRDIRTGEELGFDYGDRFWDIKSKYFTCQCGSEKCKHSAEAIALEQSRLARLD
Outline: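 Radiometric methyltransferase read-out: ^3H-methyl transfer from ^3H-SAM onto biotinylated histone peptide, captured on streptavidin Flashplates after 60 min reaction at room temperature. Enzyme 0.031 nM, preincubated 30 min with inhibitor; buffer 20 mM Bicine pH 7.5 with 1 mM TCEP; top compound concentration 50 μM final, 2% DMSO.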

[1] = recombinant human EHMT2 913-1193, histone H3 1-15 peptide, balanced conditions, read-out: EHMT2 PEP (IC50 μM)
[2] = Table VII, read-out: EHMT1 PEP IC50
[3] = Table VII, read-out: EHMT2 PEP IC50

SMILES | IC50 (EHMT1; read-out: EHMT1 PEP (IC50 μM)) | IC50 (human EHMT2 913-1193; [1]) | IC50 (EHMT1; [2]) | IC50 (human EHMT2 913-1193; [3])
COc1cnc(Nc2nc(C)cc3[nH]ncc23)cc1OCCCN1CCCC1 [Compound 460, N-(5-methoxy-4-(3-(pyrrolidin-1-yl)propoxy)pyridine-2-yl)-6-methyl-1H-pyrazolo[4,3-c]pyridine-4-amine] | < 0.1 µM | < 0.1 µM | – | –
CNc1nc(C2CCN(C)CC2)c2cc(OC)c(OCCCN3CC4CC4C3)cc2n1 (stereo not drawn) [Compound 532] | < 0.1 µM | < 0.1 µM | – | –
CNc1cc(C)nc(Nc2cnc(OC)c(OC[C@@H]3CCN(C4CC4)C3)c2)n1 [Compound 512] | < 0.1 µM | < 0.1 µM | – | –
COc1cnc(Nc2cc(NCC3CCOCC3)cc(C)n2)cc1OCCCN1CCCC1 [Compound 464, N^2-(5-methoxy-4-(3-(pyrrolidin-1-yl)propoxy)pyridin-2-yl)-6-methyl-N^4-((tetrahydro-2H-pyran-4-yl)methyl)pyridine-2,4-diamine] | 0.1 to 1 µM | 0.1 to 1 µM | – | –
CNc1cc(C)nc(Nc2ccc(OC)c(OCCCN3CC4CC4C3)c2)n1 (stereo not drawn) [Compound 506] | < 0.1 µM | < 0.1 µM | – | –
CNc1cc(Nc2cc(OCCCN3CC4CC4C3)c(OC)cn2)nc(C)c1F (stereo not drawn) [Compound 509] | < 0.1 µM | 0.1 to 1 µM | – | –
CNc1cc(C)nc(Nc2ccc(OC)c(OCCC3CN(C)C3)c2)n1 [Compound 508] | 1 to 10 µM | 1 to 10 µM | – | –
CNc1nc(C2CCNCC2)c2cc(OC)c(OCCCN3CCCC3)cc2n1 [Compound 520] | < 0.1 µM | < 0.1 µM | – | –
CNc1cc(C)nc(Nc2cnc(OC)c(OCCCN3CC4CC4C3)c2)n1 (stereo not drawn) [Compound 514] | < 0.1 µM | 0.1 to 1 µM | – | –
CNc1cc(C)nc(Nc2cnc(OC)c(CNCCN3CCC3)c2)n1 [Compound 1110] | – | – | < 0.1 µM | 0.1 to 1 µM
COc1cnc(Nc2nc(C)cc3[nH]ccc23)cc1OC[C@H]1CCN(C2CC2)C1 [Compound 494a] | < 0.1 µM | 0.1 to 1 µM | – | –
CNc1cc(C2CCN(C)CC2)c2cc(OC)c(OCCCN3CCCC3)cc2n1 [Compound 535] | < 0.1 µM | < 0.1 µM | – | –
CNc1nc(C2CC(C)(C)NC(C)(C)C2)c2cc(OC)c(OCCCN3CCCC3)cc2n1 [Compound 534] | 1 to 10 µM | 1 to 10 µM | – | –
CNc1cc(C)nc(Nc2ccc(OC)c(OC[C@H](O)CN(C)C)c2)n1 [Compound 1112] | – | – | < 0.1 µM | 0.1 to 1 µM
CNc1cc(C2CCOCC2)c2cc(OC)c(CNCCN3CCCC3)cc2n1 [Compound 1111] | – | – | < 0.1 µM | < 0.1 µM
CNc1cc(C)nc(Nc2ccc(OC)c(OC[C@@H]3CN(C)C[C@@H]3O)c2)n1 [Compound 492] | < 0.1 µM | 0.1 to 1 µM | – | –
COc1cc2c(C3CCN(C)CC3)cc(C)nc2cc1OCCCN1CCCC1 [Compound 536] | < 0.1 µM | < 0.1 µM | – | –
CNc1nc(C2CCN(C(C)=O)CC2)c2cc(OC)c(OCCCN3CCCC3)cc2n1 [Compound 519] | 1 to 10 µM | 0.1 to 1 µM | – | –

SMILES | IC50 (EHMT1; read-out: EHMT1 PEP (IC50 μM)) | IC50 (human EHMT2 913-1193; [1]) | IC50 (EHMT1; [2]) | IC50 (human EHMT2 913-1193; [3])
CNc1cc(C)nc(Nc2ccc(OC)c(OCCCN3CC(O)C3)c2)n1 [Compound 465, 1-(3-(2-methoxy-5-((4-methyl-6-(methylamino)pyrimidin-2-yl)amino)phenoxy)propyl)azetidin-3-ol] | < 0.1 µM | < 0.1 µM | – | –
CNc1nc(C2CCCC2)c2cc(OC)c(OCCCN3CCCC3)cc2n1 [Compound 518, 4-cyclopentyl-6-methoxy-N-methyl-7-(3-(pyrrolidin-1-yl)propoxy)quinazolin-2-amine] | 1 to 10 µM | 1 to 10 µM | – | –
CNc1nc(C2CCN(C(C)C)CC2)c2cc(OC)c(OCCCN3CCCC3)cc2n1 [Compound 530] | < 0.1 µM | < 0.1 µM | – | –
CNc1nc(C2CCOCC2)c2cc(OC)c(OCCCN3CCCC3)cc2n1 [Compound 521] | 1 to 10 µM | 1 to 10 µM | – | –
CNc1cc(C2CCOCC2)nc(Nc2ccc(OC)c(OCCCN3CCCC3)c2)n1 [Compound 459, N^2-(4-methoxy-3-(3-(pyrrolidin-1-yl)propoxy)phenyl)-N^4-methyl-6-(tetrahydro-2H-pyran-4-yl)pyrimidine-2,4-diamine] | 1 to 10 µM | 1 to 10 µM | – | –
CNc1cc(C)nc(Nc2ccc(OC)c(OCCC3CCN(C)C3)c2)n1 (stereo not drawn) [Compound 503] | 1 to 10 µM | 1 to 10 µM | – | –
CNc1cc(C)nc(Nc2ccc(OC)c(OC3CCN(C4CC4)CC3)c2)n1 [Compound 466, N^2-(3-((1-cyclopropylpiperidin-4-yl)oxy)-4-methoxyphenyl)-N^4,6-dimethylpyrimidine-2,4-diamine] | > 10 µM | > 10 µM | – | –
CNc1cc(C)nc(Nc2ccc(OC)c([C@H]3C[C@H]3CN(C)C)c2)n1 [Compound 488] | < 0.1 µM | 0.1 to 1 µM | – | –
COc1cnc(Nc2nc(C)cc3[nH]ccc23)cc1OC[C@@H]1CCN(C2CC2)C1 [Compound 495] | < 0.1 µM | 0.1 to 1 µM | – | –
CNc1cc(C)nc(Nc2ccc(C)c(C(=O)NCc3ccon3)c2)n1 [Compound 1114] | – | – | > 10 µM | > 10 µM
CNc1nc(C2CCN(CCO)CC2)c2cc(OC)c(OCCCN3CCCC3)cc2n1 [Compound 533] | < 0.1 µM | < 0.1 µM | – | –
CNc1nc(C2=CCOCC2)c2cc(OC)c(OCCCN3CCCC3)cc2n1 [Compound 522] | 1 to 10 µM | 1 to 10 µM | – | –
CNc1cc(C)nc(Nc2ccc(OC)c(OCCCN(C)C3CC3)c2)n1 [Compound 463, N^2-(3-(3-(cyclopropyl(methyl)amino)propoxy)-4-methoxyphenyl)-N^4,6-dimethylpyrimidine-2,4-diamine] | < 0.1 µM | < 0.1 µM | – | –
CNc1cc(C)nc(Nc2ccc(OC)c(OCCCN3CCC3)c2)n1 [Compound 490] | < 0.1 µM | < 0.1 µM | – | –
CCc1ccc(Nc2nc(C)cc(NC)n2)cc1OCCCN1CCCC1 [Compound 497] | 0.1 to 1 µM | 0.1 to 1 µM | – | –
CNc1cc(C2CCOCC2)c2cc(OC)c(OCCCN3CCCC3)cc2n1 [Compound 524, 6-methoxy-N-methyl-4-(oxan-4-yl)-7-[3-(pyrrolidin-1-yl)propoxy]quinolin-2-amine] | < 0.1 µM | < 0.1 µM | – | –
CNc1ccnc(Nc2ccc(OC)c(OC[C@@H]3CN(C)C[C@@H]3C)c2)n1 [Compound 477] | 0.1 to 1 µM | 0.1 to 1 µM | – | –
CNc1cc(C)nc(Nc2ccc(OC)c(OC[C@@H]3CN(C)C[C@H]3O)c2)n1 [Compound 491] | < 0.1 µM | 0.1 to 1 µM | – | –
